Experimental data reported in patent publication US20230333087A1, “METHODS FOR MONITORING PATIENT RESPONSE TO TREATMENT OF RETINAL OXIDATIVE DISEASES” (BioJiva LLC, priority 2022, published 2023).

Key:
[1] = tested on: carboxyethyl pyrrole (CEP); assay: Immunolabelling for CEP on cryosections; format: in vivo, C57BL/6J mice; details: 1 week after injection, 4 weeks diet
Protocol: Iron-catalyzed peroxidation of phospholipids containing DHA leads to unique carboxyethyl pyrrole (CEP) adducts not formed from any other PUFA. CEP has been detected by IHC in human AMD eyes and mouse retinas, including those from mice receiving IVT iron. To test whether D-DHA could protect against iron-induced CEP formation, mice were fed with D-DHA or DHA for 4 weeks prior to IVT injection of iron or control saline.
Cryosections were prepared at 4h and 1 week after injections. Co-labelling for CEP and rhodopsin was conducted to assess and localize CEP. […] At 1 week after injection, immunolabelling for CEP localized to RPE and infiltrating myeloid cells in IVT iron injected eyes of DHA fed mice, likely originationg from phagocytosed oxidized photoreceptor outer segments (FIG. 8B). Immunolabelling for CEP was undetected in D-DHA fed mice. […] Quantification of pixel density for CEP and L-Ft label was conducted using ImageJ software (FIGS. 8F and 8G), and quantitatively verified the results described above.
Immunofluorescence on cryosections was conducted as described previously. […] Images were acquired with an epifluorescence microscope (Nikon 80i microscope, Nikon, Tokyo, Japan), and analyzed using NIS-Elements (Nikon).

[2] = tested on: neural retina mRNA levels; assay: Quantitative PCR of mRNA changes in the neural retina; format: in vivo, C57BL/6J mice; details: 1 week after injection
Protocol: Quantitative PCR was used to evaluate mRNA changes in the neural retinas of mice fed with D-DHA or DHA for 4 weeks. Cell-type specific, iron regulating, antioxidant, and inflammation related genes were evaluated at 1 week after iron or saline injections. The mRNA levels of the rod-specific gene rhodopsin (Rho), cone-specific gene cone opsin1 medium wave sensitive and short wave sensitive (Opn1mw and Opn1sw) were measured to assess the stress and differentiation of rod and cone photoreceptors. […] In contrast, there was no change in these mRNAs in the neural retinas of D-DHA/IVT iron mice relative to IVT saline controls (FIG. 9). The mRNA levels of transferrin receptor (Tfrc) which are inversely related to intracellular iron levels, can be used as an indicator of intracellular iron levels. […] These two groups had slightly different Tfrc levels, perhaps as a result of loss of some photoreceptors in the DHA/IVT iron group (FIG. 9). The mRNA levels of antioxidants solute carrier family 7 member 11 (SLC7A11), glutathione peroxidase 4 (GPX4), glutathione S-transferase isoform m1(GSTm1), glutathione synthesis (GSS), catalase (Cat), heme oxygenase 1 (Hmox1), and superoxide dismutase 1 (Sod1) were measured to investigate oxidative stress. […] The mRNA levels of IL1β, IL6 and cluster of differentiation 68 (Cd68) were detected to investigate the retinal inflammation. […] The mRNA levels of Glutathione-synthase (GSS) and IL6 were not increased by IVT iron in mice on either diet (FIG. 9).
Neural retina tissues were isolated as previously described (e.g., M Hadziahmetovic et al. Age-dependent retinal iron accumulation and degeneration in hepcidin knockout mice. Investigative ophthalmology & visual science. Jan. 5, 2011;52(1):109-18).Gene expression changes in the neural retina and purified RPE cells were evaluated. Gapdh was used as an endogenous control. […]

With [2H]C([2H])(/C=C\CC)/C=C\C([2H])([2H])/C=C\C([2H])([2H])/C=C\C([2H])([2H])/C=C\C([2H])([2H])/C=C\CCC(=O)OCC [D-DHA, 6,6,9,9,12,12,15,15,18,18-D10-(4Z,7Z,10Z,13Z,16Z, 19Z)-docosa 4,7,10,13,16, 19-hexaenoic acid ethyl ester] the “immunolabelling for CEP” value [1] was “undetected”, the “upregulation of antioxidants mRNA (Slc7a11, Gpx4, GSTm1, Cat, Hmox1, Sod1)” value ([2]; D-DHA/IVT iron eyes) was “prevented” and the “mRNA levels of Rho, Opn1sw (photoreceptor genes)” value ([2]; D-DHA/IVT iron relative to IVT saline controls) was “no change”. The “mRNA levels of IL1β and Cd68” value ([2]; D-DHA/IVT iron retinas) was “not increased”.
